The test system of experiment [1] is Aspergillus niger ATCC 6275. Put plainly: MIC in the agar incorporation test. The note with it: Sabouraud 4% glucose agar, 3 days at 28° C., unit not given, method gives agar concentrations in ppm. The experiment is classed as cell-based. How it is done: (§1) Test solution: 1% stock solutions of all the test substances are prepared in a suitable solvent and diluted in serial dilutions as far as possible so that final concentrations of from 500 ppm to 10 ppm are obtained in the agar. Test principle: 0.3 ml of the particular dilution stage is mixed with 15 ml of still liquid nutrient medium. After solidification of the nutrient base, 10 μl of the test strains in a suitable organism dilution in 0.85% NaCl solution are applied point-wise to the agar medium: [table]

Experiment [2] relates to Candida albicans ATCC 10231. In words: MIC in the agar incorporation test. The experiment is classed as cell-based. As to conditions: Sabouraud 4% glucose agar, 3 days at 28° C., unit not given, method gives agar concentrations in ppm. How it is done: as §1
Experiment [3] concerns Corynebacterium minutissimum ATCC 23348. Put plainly: MIC in the agar incorporation test. It counts as cell-based. The note with it: unit not given, method gives agar concentrations in ppm. How it is done: as §1
In experiment [4] the test system is Escherichia coli ATCC 10536. In words: MIC in the agar incorporation test. It counts as cell-based. The note with it: 24 hours at 37° C., unit not given, method gives agar concentrations in ppm. On the procedure:
as §1

Experiment [5] relates to Escherichia coli NCTC 8196. Put plainly: MIC in the agar incorporation test. The note with it: 24 hours at 37° C., unit not given, method gives agar concentrations in ppm. The experiment is classed as cell-based. On the procedure:
as §1

Experiment [6] deals with Klebsiella pneumoniae ATCC 4352. In words: MIC in the agar incorporation test. It counts as cell-based. As to conditions: unit not given, method gives agar concentrations in ppm. How it is done:
as §1

For experiment [7], the system named is Propionibacterium acnes ATCC 6919. In words: MIC in the agar incorporation test. The note with it: unit not given, method gives agar concentrations in ppm. The experiment is classed as cell-based. On the procedure: as §1
Experiment [8] concerns Proteus vulgaris ATCC 6896. In words: MIC in the agar incorporation test. It counts as cell-based. The note with it: unit not given, method gives agar concentrations in ppm. On the procedure: as §1
Experiment [9] relates to Pseudomonas aeruginosa ATCC 15442. In words: MIC in the agar incorporation test. The experiment is classed as cell-based. As to conditions: 24 hours at 37° C., unit not given, method gives agar concentrations in ppm. On the procedure:
as §1

The subject of experiment [10] is Salmonella choleraesuis ATCC 9184. In words: MIC in the agar incorporation test. It counts as cell-based. The note with it: unit not given, method gives agar concentrations in ppm. How it is done:
as §1

For experiment [11], the system named is Staphylococcus aureus ATCC 6538. In words: MIC in the agar incorporation test. As to conditions: 24 hours at 37° C., unit not given, method gives agar concentrations in ppm. It counts as cell-based. On the procedure:
as §1

The subject of experiment [12] is Staphylococcus aureus ATCC 9144. Put plainly: MIC in the agar incorporation test. It counts as cell-based. The note with it: 24 hours at 37° C., unit not given, method gives agar concentrations in ppm. On the procedure:
as §1

For experiment [13], the system named is Staphylococcus epidermidis ATCC 12228. Put plainly: MIC in the agar incorporation test. The experiment is classed as cell-based. As to conditions: unit not given, method gives agar concentrations in ppm. On the procedure:
as §1

Experiment [14] deals with A. actinomycetemcomitans ATCC43718. In words: MIC against oral organisms in the serial dilution test. It counts as cell-based, Actinobacillus actinomycetemcomitans. As to conditions: thioglycolate broth, 24 h aerobic with 10% CO2, unit not given, stock solutions in ppm (w/w). An excerpt: (§2) Determination of the MIC Against Various Oral Organisms in the Serial Dilution Test
(§3) Medium: Thioglycolate broth with hemin and menadione • Columbia broth with hemin and menadione for P. gingivalis and P. nigrescens
(§4) Dilution medium: The appropriate amount of the substances was pipetted directly onto the medium.
(§5) Test organisms: Actinobacillus actinomycetemcomitans ATCC 43718 • Streptococcus gordonii ATCC 10558 • Streptococcus mutans ATCC 33402 • Actinomyces viscosus ATCC 43146 • Fusobacterium nucleatum subsp. polymorphum ATCC 10953 • Porphyromonas gingivalis ATCC 33277 • Prevotella nigrescens ATCC 33563
(§6) Incubation: 7-10 days at 37° C. anaerobic, or 24 h aerobic with 10% CO2for Streptococci and A. actinomycetemcomitans
(§7) Test solution: Stock solutions of all the test substances in ethanol comprising 1500 ppm (w/w) are used.
(§8) Bacteria are removed from blood agar plates using cotton-wool-tipped sticks and a suitable O.D. is established in the appropriate medium (McFarland 0.5); this solution is used undiluted for F. nucleatum and P. nigrescens and diluted 1:20 for the other strains. 0.1 ml of bacteria culture is added to 2 ml of each of the active substance solutions, and incubation is carried out as described above.

In another experiment the test system is S. gordonii ATCC10558. Described as above. As to conditions: thioglycolate broth, 24 h aerobic with 10% CO2, unit not given, stock solutions in ppm (w/w). The experiment is classed as cell-based, Streptococcus gordonii.
Source text: as §2, §3, §4, §5, §6, §7, §8

For another experiment, the system named is S. mutans ATCC33402. The description is as above. It counts as cell-based, Streptococcus mutans. As to conditions: thioglycolate broth, 24 h aerobic with 10% CO2, unit not given, stock solutions in ppm (w/w).
Source text: as §2, §3, §4, §5, §6, §7, §8

The subject of the next experiment is A. viscosus ATCC43146. The description is as above. It counts as cell-based, Actinomyces viscosus. The note with it: thioglycolate broth, 7-10 days at 37° C. anaerobic, unit not given, stock solutions in ppm (w/w).
Source text: as §2, §3, §4, §5, §6, §7, §8

Experiment [15] relates to F. nucleatum subsp. polymorphum ATCC10953. Described as above. The note with it: thioglycolate broth, 7-10 days at 37° C. anaerobic, unit not given, stock solutions in ppm (w/w). The experiment is classed as cell-based, Fusobacterium nucleatum subsp. polymorphum.
Source text: as §2, §3, §4, §5, §6, §7, §8

In another experiment the test system is P. gingivalis ATCC3277. The description is as above. The note with it: Columbia broth with hemin and menadione, 7-10 days at 37° C. anaerobic, unit not given, stock solutions in ppm (w/w). The experiment is classed as cell-based, Porphyromonas gingivalis.
Source text: as §2, §3, §4, §5, §6, §7, §8

The next experiment deals with P. nigrescens ATCC33563. Described as above. As to conditions: Columbia broth with hemin and menadione, 7-10 days at 37° C. anaerobic, unit not given, stock solutions in ppm (w/w). It counts as cell-based, Prevotella nigrescens.
Source text: as §2, §3, §4, §5, §6, §7, §8

Experiment [16] deals with Actinomyces viscosus ATCC 43146. In words: Substantivity on hydroxyapatite and growth-inhibiting action. As to conditions: plates pretreated with synthetic saliva, incubated in ethanolic solution comprising 50 and 500 ppm; 24 hours at 37° C.; in comparison with an untreated control (FIGS. 1 and 2). It counts as cell-based. On the procedure:
Principle: apatite plates (dia. 10 mm) are placed in synthetic saliva (Deutsche Zahnärztliche Zeitschrift DZZ May 2002), rinsed in NaCl and then incubated in an ethanolic solution of test substances (II) and (III) comprising 50 and 500 ppm. The plates are then introduced into a Nunclon Surface titre plate (12 wells) and incubated for 24 hours at 37° C. in Caso nutrient medium which has been inoculated with Actinomyces viscosus ATCC 43146 (about 10^5/ml).

The test system of experiment [17] is biofilm of a defined mixed culture of gram+ and gram− oral organisms and a yeast (Candida albicans) on hydroxyapatite discs. In words: Activity in the biofilm model (in vitro supragingival plaque). It counts as cell-based. The note with it: 0.5% substance (II) in mouthwash formulation. An excerpt:
Test of the Activity of 2-dodecyloxy-benzoic Acid (II) in the Biofilm Model
Principle: see Guggenheim et a/. (2001), “Validation of an in vitro biofilm model of supragingival plaque”, J. Dent Res. 80 (1)
Hydroxyapatite discs are pretreated with human saliva and a biofilm of a defined mixed culture of various gram+ and gram− oral organisms (Streptococci, Actinomyces sp., Veillonella & Fusobacterium sp. & others) and a yeast (Candida albicans) are allowed to grow on the hydroxyapatite. During the test period of 4 days, the discs are immersed, several times in all, in the below given application formulation of the substance (II),
and at the end the biofilm is harvested and the number of living cells is determined.

Several values for one entry are separate records, joined by “and”; a condition that tells them apart may be missing. Equal entries are not always repeated.

With `CCCCCCCCCCCCOc1ccccc1C(=O)O` [II, 2-dodecyloxy-benzoic acid], the “Minimum Inhibitory Concentration (MIC)” value in experiment [1] is given as greater than 500; in [2] it was greater than 500; in experiment [3] it was 15.63; in experiment [4], greater than 500; in experiment [5] it was greater than 500; in experiment [6] it was greater than 500. Moreover, the “Minimum Inhibitory Concentration (MIC)” value in experiment [7] is 15.63; in experiment [8] it was greater than 500; in experiment [9], greater than 500; in experiment [10], greater than 500; in experiment [11], 31.25; in experiment [12], 31.25. Besides, the “Minimum Inhibitory Concentration (MIC)” value in experiment [13] worked out at 15.63. The MIC in experiment [14] was greater than 15; in the experiment on S. gordonii ATCC10558 it was 15; against S. mutans ATCC33402 it was 7.5; against A. viscosus ATCC43146 it was 1.88; in experiment [15], greater than 15; in the experiment with P. gingivalis ATCC3277, 7.5. In the experiment on P. nigrescens ATCC33563, this compound had an MIC greater than 15. Moreover, the “growth of Actinomyces viscosus after adsorption of the substance onto hydroxyapatite plates” value in experiment [16] was “inhibition of the growth”. Also, the “number of living cells of the harvested biofilm (mean values)” value in experiment [17] (discs immersed several times during 4 days, two independent tests) is 1.2 × 10^5 CFU/disc and 1.7 × 10^5 CFU/disc. Also, the “microbial count of the biofilm on the hydroxyapatite discs compared with the placebo formulation” value in [17] (test period of 4 days) was “marked reduction”.

In the case of `CCCCCCCCCCCCCCCCOc1cc(C(=O)O)cc(C(=O)O)c1` [III, 5-hexadecyloxy-isophthalic acid], the “Minimum Inhibitory Concentration (MIC)” value in experiment [1] is reported as greater than 48; in [2] it was greater than 48; in [3], 24; in experiment [4], greater than 48; in [5], greater than 48; in experiment [6], greater than 48. The “Minimum Inhibitory Concentration (MIC)” value in experiment [7] is reported as 12; in [8], greater than 48; in experiment [9], greater than 48; in experiment [10], greater than 48; in [11] it was 24; in experiment [12], 24. For the same compound, the “Minimum Inhibitory Concentration (MIC)” value in experiment [13] amounted to 12. Also, the MIC in experiment [14] is reported as 15; in the experiment on S. gordonii ATCC10558, “≦0.94”; in the experiment with S. mutans ATCC33402, 3.75; in the experiment on A. viscosus ATCC43146, 1.88; in experiment [15] it was greater than 15; in the experiment with P. gingivalis ATCC3277 it was “≦0.94”. For the same compound, in the experiment on P. nigrescens ATCC33563, the MIC is recorded as greater than 15. Also, the “growth of Actinomyces viscosus after adsorption of the substance onto hydroxyapatite plates” value in experiment [16] is reported as “inhibition of the growth”.

Values taken from patent US20070196407A1, “Alkoxyphenylcarboxylic acid derivatives” (priority 2004, published 2007).
